Reference: US9265731B2, “Drying of drug-containing particles” (Bend Research, Inc., priority 2005, dated 2016)

Experiment: In vitro dissolution test (microcentrifuge, PBS pH 6.5, 37° C., HPLC)
Format: physicochemical
Details: for Drug 1 Concentration: PBS pH 6.5, 290 mOsm/kg, 37° C., 1000 μg/mL if all drug dissolved
Protocol: A sample of the solid amorphous dispersion used in Example 4 was evaluated before and after secondary drying in an in vitro dissolution test to determine the effect of drying on concentration enhancement relative to the crystalline form of Drug 1. As a control, Control 5 consisted of crystalline Drug 1 alone. For this test, a sufficient amount of Dispersion 1 and Control 5 material was added to microcentrifuge test tubes so that the concentration of Drug 1 would have been 1000 μg/mL in both cases if all of the drug had dissolved. The test was performed in duplicate. The tubes were placed in a 37° C. temperature-controlled chamber, and 1.8 mL PBS at pH 6.5 and 290 mOsm/kg was added to each tube. The samples were mixed using a vortex mixer for about 60 seconds. The samples were centrifuged at 13,000 G at 37° C. for 1 minute. The resulting supernatant solution was then sampled and diluted 1:6 (by volume) with methanol and then analyzed by high performance liquid chromatography (HPLC). The contents of each tube were mixed on the vortex mixer and allowed to stand undisturbed at 37° C. until the next sample was taken. Samples were collected at 4, 10, 20, 40, 90, and 1200 minutes.
The concentrations of drug obtained in these samples were used to determine the maximum concentration of drug (MDC90) and the area under the concentration-versus-time curve (AUC90) during the initial ninety minutes.

[1] = PBS pH 6.5, 37° C., initial 90 min

AUC90 (area under the concentration-versus-time curve during the initial ninety minutes) [1]: <88 µg·min/mL
MDC90 (maximum concentration of drug during the initial ninety minutes) [1]: <1 µg/mL
AUC (time 0 min, PBS pH 6.5, 37° C.): 0 µg·min/mL
Drug 1 Concentration (time 0 min): 0 µg/mL
AUC (time 4 min, PBS pH 6.5, 37° C.): <2 µg·min/mL
Drug 1 Concentration (time 4 min): <1 µg/mL
AUC (time 10 min, PBS pH 6.5, 37° C.): <8 µg·min/mL
Drug 1 Concentration (time 10 min): <1 µg/mL
AUC (time 20 min, PBS pH 6.5, 37° C.): <18 µg·min/mL
Drug 1 Concentration (time 20 min): <1 µg/mL
AUC (time 40 min, PBS pH 6.5, 37° C.): <38 µg·min/mL
Drug 1 Concentration (time 40 min): <1 µg/mL
AUC (time 90 min, PBS pH 6.5, 37° C.): <88 µg·min/mL
Drug 1 Concentration (time 90 min): <1 µg/mL
AUC (time 1200 min, PBS pH 6.5, 37° C.): <1,200 min*μg/mL
Drug 1 Concentration (time 1200 min): <1 µg/mL
SMILES: CCOC(=O)N1c2ccc(C(F)(F)F)cc2[C@@H](N(Cc2cc(C(F)(F)F)cc(C(F)(F)F)c2)C(=O)OC)C[C@H]1CC [Control 5, [2R,4S]4-[(3,5-bistrifluoromethyl-benzyl)-methoxycarbonyl-amino]-2-ethyl-6-trifluoromethyl-3,4-dihydro-2H-quinoline-1-carboxylic acid ethyl ester]
